SMILES strings stand for the structures.

This note sets out measurements from PMC12469314, “Computational and Experimental Insights into Tyrosinase and Antioxidant Activities of Resveratrol and Its Derivatives: Molecular Docking, Molecular Dynamics Simulation, DFT Calculation, and In Vitro Evaluation” (International Journal of Molecular Sciences, 2025).

The target in assay [1] is T1, mushroom tyrosinase (Agaricus bisporus, UniProt C7FF04).
T1 construct: purchased Sigma-Aldrich
Put plainly: Anti-mushroom tyrosinase activity (DOPA-chrome method). The class given is biochemical. How it is done:
The inhibitory activity of the samples against mushroom tyrosinase was assessed using the DOPA-chrome method with some modifications. […] The assay was performed in a 96-well plate, in which the buffer was added to all wells, followed by 10% DMSO (50 μL) in the control and blank control wells. […] Next, 50 μL of tyrosinase solution was added to all wells except for the blank control and blank sample, followed by incubation at room temperature for 10 min. Subsequently, 50 μL of L-Dopa solution was added to all wells and incubated for 10 min at room temperature. Finally, the absorbance was measured at 492 nm using a UV spectrophotometer. […] All experiments were performed in triplicate.

Assay [2] can be described thus: DPPH radical scavenging activity. The settings on record: 30 min, 517 nm, mean ± SD. Here is the method:
The DPPH radical scavenging activity was determined according to the method in [45] with slight modifications. A 20 µL sample was added to a 96-well plate, followed by 0.1 mM DPPH dissolved in absolute ethanol. The mixtures were incubated in the dark at room temperature for 30 min, and their absorbance was measured at 517 nm with 3 replications using a UV spectrophotometer. The radical scavenging activity was calculated as follows:%radical scavenging = [(Acontrol − Asample)/Acontrol] × 100 where Acontrol = absorbance of the control, which contains an equal volume of DPPH and absolute ethanol, and Asample = absorbance of the sample or ascorbic acid standard, which contains an equal volume of DPPH and the sample solution. The percentage inhibition of the test solutions was calculated and plotted against their concentrations, along with the L-ascorbic acid standard, to generate a linear equation. The concentration required for IC50 was determined via interpolation from the linear equation.
On the technique in general: DPPH is a stable violet radical that fades when it is reduced.

Assay [3] in a line: Ferric reducing antioxidant power (FRAP). The settings on record: 595 nm, FeSO4 calibration, mean ± SD. How it is done: A FRAP assay was performed based on the method in [46] with slight modifications. The FRAP solution reagent was prepared by combining 0.3 M acetate buffer, 10 mM TPTZ solution in 40 mM HCl, and 20 mM ferric chloride (FeCl3) solution in a 10:1:1 ratio. Next, 20 µL of the sample was added to 280 µL of the FRAP reagent, and the mixture was thoroughly mixed. Absorbance was then measured at 595 nm using a UV spectrophotometer. A calibration curve was constructed with ferrous sulfate (FeSO4), and the results were expressed as the equivalent of FeSO4/g.

Assay [4] in a line: ABTS radical scavenging activity. The settings on record: 7 min at 37 °C, 734 nm, mean ± SD. Here is the method: ABTS radical scavenging activity was measured using the method described by Thaipong et al. (2006), with minor modifications. The ABTS solution was prepared by dissolving 7 mM ABTS and mixing it with potassium persulfate in a 2:1 ratio. The mixture was allowed to react in the dark for 12–16 h. Before use, the ABTS radical cation was diluted with ultrapure water to achieve an initial absorbance of around 0.70 ± 0.02 at 734 nm, as measured using a UV spectrophotometer. Sample solutions at various concentrations were then prepared by mixing 50 μL of each sample with 100 μL of the ABTS solution. The mixture was incubated in the dark for 7 min at 37 °C. After incubation, absorbance was measured at 734 nm. All tests were performed in triplicate, and the percentage of radical scavenging activity was calculated.

T1 sequence (C7FF04 1-392): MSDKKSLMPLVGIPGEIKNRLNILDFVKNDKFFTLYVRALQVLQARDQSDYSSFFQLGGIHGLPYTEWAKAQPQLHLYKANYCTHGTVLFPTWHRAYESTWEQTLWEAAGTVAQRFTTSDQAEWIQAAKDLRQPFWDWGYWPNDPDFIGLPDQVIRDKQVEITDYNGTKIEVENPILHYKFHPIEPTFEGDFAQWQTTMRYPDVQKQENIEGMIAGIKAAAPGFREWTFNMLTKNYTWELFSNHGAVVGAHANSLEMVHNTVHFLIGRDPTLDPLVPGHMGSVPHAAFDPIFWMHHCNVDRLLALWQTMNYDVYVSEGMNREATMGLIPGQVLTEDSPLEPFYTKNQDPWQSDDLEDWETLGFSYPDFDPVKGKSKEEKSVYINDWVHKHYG

What is called IC50 is the point on the concentration scale where inhibition reaches its midpoint. A higher IC50 goes with lower potency. In the case of `CC(=O)Oc1ccc(/C=C/c2cc(OC(C)=O)cc(OC(C)=O)c2)cc1` [Are, Acetyl-resveratrol], the IC50 in assay [1] was 396 ± 5.74 µM; in assay [2] it was more than 1500 µM. For the same compound, the FRAP reducing power entry in assay [3] was “very low reducing power”.
For `COc1ccc(/C=C\c2cc(OC)cc(OC)c2)cc1` [Cre, Cis-trismethoxy resveratrol], in that order: 532 ± 3.59 µM, more than 1500 µM and “very low reducing power”.
The like results for `Oc1ccc(CCc2cc(O)cc(O)c2)cc1` [Dre, Dihydroresveratrol] were, in that order, 335 ± 7.98 µM, more than 1500 µM and “very low reducing power”.
Consider `O=C1O[C@H]([C@@H](O)CO)C(O)=C1O` [L-ascorbic acid, reference compound], for which, in assay [4], the midpoint of inhibition, the IC50, lay at 52.41 ± 0.06 µM.
For `Oc1cc(O)cc(/C=C/c2ccc(O)cc2O)c1` [Ore, Oxyresveratrol], the IC50 in assay [1] was found to be 4.02 ± 0.46 µM; in assay [2], 38.1 ± 1.12 µM; in assay [4], 26.2 ± 0.57 µM. In assay [3], the FRAP reducing power is on record as 664.99 ± 42.62 μmol Fe(II)/g.
`Oc1ccc(/C=C/c2cc(O)cc(O)c2)cc1` [Re, 3,4′,5-trihydroxy-trans-stilbene]: in assay [1], half-maximal inhibition (IC50) was put at 517 ± 7.4 µM.
